Assay: Storage stability of allicin in aqueous solution
Type: physicochemical

SMILES: C=CCS[S+]([O-])CC=C (centres unmarked) [allicin, thio-2-propene-1-sulfinic acid S-allyl ester]
- stability in solution (0.5% solution at −40° C., filtered to remove impurities): reasonably stable
- stability in solution (concentrations above 0.5% solution in water): extremely unstable
- effect of pH on stability (diluted solution, pH controlled to approximately pH 4.5): increases the stability
- stability on storage (non-extracted solution diluted to approximately 'it' allicin, stored below −20° C.): stable for several months
- stability in solution (solution of up to 1.0% v/v allicin): unstable

Source: patent publication US7179632B2, “Process for the production of allicin” (Neem Biotech Ltd., priority 2001, dated 2007)
